Drawing on PubChem BioAssay (NCI), this text covers TGI for seven compounds.

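Tested at 5 concentrations; 48 h exposure; 96-well plates; endpoints linearly interpolated, else capped at highest concentration. TGI denotes the concentration required for complete inhibition of growth.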

Among the test systems are MOLT-4 leukemia; OVCAR-4 ovarian; CCRF-CEM leukemia; SNB-75 CNS; HS 578T breast; MDA-N; OVCAR-3 ovarian; SW-620 colon; NCI-H522 lung; SN12C renal; K-562 leukemia; LOX IMVI melanoma; SR leukemia; IGROV1 ovarian; PC-3 prostate; U251 CNS; NCI-H460 lung; BT-549 breast; NCI/ADR-RES ovarian.
Assay in all cases: NCI tumour cell line growth inhibition, 48 h

In the case of `O=c1[nH]c(=O)n(C/C=C/CBr)nc1Br`, the TGI in the experiment on MOLT-4 leukemia was determined as 43.3 µM; with OVCAR-4 ovarian, 22.9 µM; in the experiment on CCRF-CEM leukemia, 30.7 µM; in the experiment on SNB-75 CNS, 24.3 µM; with HS 578T breast, 53.8 µM; with MDA-N, 27.5 µM. Moreover, the TGI amounted to 23.9 µM in the experiment on OVCAR-3 ovarian; 29.5 µM in the experiment on SW-620 colon; 14.5 µM in the experiment on NCI-H522 lung; 28.1 µM in the experiment on SN12C renal; 47.7 µM with K-562 leukemia; 5.78 µM in the experiment on LOX IMVI melanoma. Also, the TGI with SR leukemia stood at 14.1 µM; with IGROV1 ovarian it was 29.5 µM; with PC-3 prostate, 24.6 µM; in the experiment with U251 CNS, 21.8 µM; in the experiment on NCI-H460 lung, 37 µM; with BT-549 breast, 27.7 µM. The same compound came in with a TGI with NCI/ADR-RES ovarian of 45.6 µM.

As to `COc1ccc2c(-c3ccc(O)cc3)c(Oc3ccc(Cl)cc3)c(=O)oc2c1`, the TGI in the experiment on MOLT-4 leukemia was greater than 29.9 µM; in the experiment with OVCAR-4 ovarian, 25.4 µM; in the experiment on CCRF-CEM leukemia, greater than 100 µM; in the experiment with SNB-75 CNS it was 33.8 µM; in the experiment on HS 578T breast, 16.8 µM; in the experiment with MDA-N, 23.2 µM. Further, the TGI was 12.3 µM in the experiment on OVCAR-3 ovarian; greater than 32 µM in the experiment with SW-620 colon; 6.53 µM in the experiment on NCI-H522 lung; 19.2 µM with SN12C renal; greater than 57.8 µM in the experiment on K-562 leukemia; greater than 44.9 µM in the experiment on LOX IMVI melanoma. Besides, the TGI is greater than 28.5 µM in the experiment on SR leukemia; 9.99 µM in the experiment with IGROV1 ovarian; 24.4 µM in the experiment on PC-3 prostate; 20.1 µM with U251 CNS; 19.8 µM in the experiment on NCI-H460 lung; 23.3 µM with BT-549 breast. The compound further displayed a TGI in the experiment on NCI/ADR-RES ovarian greater than 46 µM.

For `CCN(CC)C(=S)SS(=O)(=O)c1ccccc1[N+](=O)[O-]`, the TGI in the experiment with MOLT-4 leukemia was 26 µM; in the experiment on OVCAR-4 ovarian, greater than 83.3 µM; in the experiment with CCRF-CEM leukemia, greater than 100 µM; in the experiment on SNB-75 CNS, greater than 100 µM; in the experiment with HS 578T breast, greater than 88.7 µM; in the experiment on MDA-N, greater than 66.6 µM. Further, the TGI was 68 µM with OVCAR-3 ovarian; greater than 53.7 µM with SW-620 colon; 2.83 µM in the experiment on NCI-H522 lung; 56.6 µM in the experiment with SN12C renal; 50.4 µM in the experiment with K-562 leukemia; greater than 57 µM in the experiment on LOX IMVI melanoma. The TGI in the experiment on SR leukemia is greater than 42.6 µM; in the experiment with IGROV1 ovarian, greater than 100 µM; with PC-3 prostate, greater than 100 µM; in the experiment on U251 CNS, greater than 56.2 µM; in the experiment with NCI-H460 lung, greater than 100 µM; in the experiment on BT-549 breast it was greater than 80.6 µM. The compound also showed a TGI with NCI/ADR-RES ovarian of 97.5 µM.

Regarding `COc1ccccc1NC(=S)Nc1cc(C)ccn1`, the TGI in the experiment on MOLT-4 leukemia, with OVCAR-4 ovarian, with CCRF-CEM leukemia, in the experiment on SNB-75 CNS, in the experiment on HS 578T breast and in the experiment with MDA-N was greater than 100 µM in each case. The TGI in the experiment on OVCAR-3 ovarian, with SW-620 colon, in the experiment on NCI-H522 lung, with SN12C renal, in the experiment with K-562 leukemia and with LOX IMVI melanoma was greater than 100 µM in each case. The TGI with SR leukemia, with IGROV1 ovarian, in the experiment on PC-3 prostate, with U251 CNS, in the experiment on NCI-H460 lung and in the experiment with BT-549 breast was greater than 100 µM throughout. Besides, in the experiment with NCI/ADR-RES ovarian, the TGI is greater than 100 µM.

As for `COCCOCCOCCOc1ccc(C(C#N)N(CCc2ccccc2)C(=O)c2cc(C(=O)N(CCc3ccccc3)C(C#N)c3ccc(OCCOCCOCCOC)cc3)cc(C(=O)N(CCc3ccccc3)C(C#N)c3ccc(OCCOCCOCCOC)cc3)c2)cc1` (stereo not drawn), the TGI in the experiment with MOLT-4 leukemia, in the experiment on OVCAR-4 ovarian, with CCRF-CEM leukemia, with SNB-75 CNS, in the experiment on HS 578T breast and in the experiment on MDA-N was greater than 100 µM throughout. Further, the TGI in the experiment with OVCAR-3 ovarian, with SW-620 colon, in the experiment on NCI-H522 lung, in the experiment with SN12C renal, in the experiment on K-562 leukemia and in the experiment on LOX IMVI melanoma was greater than 100 µM in each case. The TGI in the experiment with SR leukemia, with IGROV1 ovarian, in the experiment with PC-3 prostate, in the experiment on U251 CNS, with NCI-H460 lung and with BT-549 breast was greater than 100 µM in each case. The compound also yielded a TGI with NCI/ADR-RES ovarian greater than 100 µM.

Turning to `COc1ccc2c(CCNS(=O)(=O)c3ccccc3)c(C(C)=O)[nH]c2c1`, the TGI in the experiment with MOLT-4 leukemia, in the experiment with OVCAR-4 ovarian, with CCRF-CEM leukemia, in the experiment on SNB-75 CNS, in the experiment with HS 578T breast and with MDA-N was greater than 100 µM each time. In addition, the TGI with OVCAR-3 ovarian, in the experiment with SW-620 colon, in the experiment with NCI-H522 lung, in the experiment with SN12C renal, in the experiment with K-562 leukemia and in the experiment on LOX IMVI melanoma was greater than 100 µM throughout. Further, the TGI in the experiment on SR leukemia, with IGROV1 ovarian, in the experiment on PC-3 prostate, in the experiment on U251 CNS, with NCI-H460 lung and in the experiment on BT-549 breast was greater than 100 µM throughout. In addition, the TGI in the experiment with NCI/ADR-RES ovarian was greater than 100 µM.

In the case of `CC1OC(O[C@H]2CC[C@]3(C=O)[C@H]4CC[C@]5(C)[C@H](C6=CC(=O)OC6)CC[C@]5(O)[C@@H]4C=C[C@]3(O)C2)CC(O)C1O` (stereo partly drawn), the TGI in the experiment with MOLT-4 leukemia was found to be 0.3 µM; with OVCAR-4 ovarian, 0.838 µM; in the experiment with CCRF-CEM leukemia, 0.82 µM; with SNB-75 CNS it was 2.31 µM; in the experiment on HS 578T breast, 4.2 µM; in the experiment with MDA-N it was 0.807 µM. Moreover, the TGI worked out at 0.583 µM in the experiment with OVCAR-3 ovarian; 0.902 µM with SW-620 colon; 0.241 µM in the experiment with NCI-H522 lung; 0.464 µM with SN12C renal; 9.01 µM in the experiment on K-562 leukemia; 0.652 µM in the experiment with LOX IMVI melanoma. Moreover, the TGI was 0.682 µM in the experiment on SR leukemia; 4.5 µM in the experiment with IGROV1 ovarian; 0.657 µM in the experiment with PC-3 prostate; 0.694 µM in the experiment with U251 CNS; 0.423 µM in the experiment on NCI-H460 lung; 0.608 µM in the experiment on BT-549 breast. For the same compound, the TGI with NCI/ADR-RES ovarian was 0.623 µM.
